In US11492335B2, “Aryl or heteroaryl triazolone derivatives or salts thereof, or pharmaceutical compositions comprising the same” (YUHAN CORPORATION, priority 2018, dated 2022):
Counter-ions that a name gives are not always drawn. Like-named read-outs stand apart in the source and are kept apart here.

Key:
Type in all cases: biochemical
[1] = molecular target: T1, recombinant human MAO-A (monoamine oxidase-A) (Homo sapiens, UniProt P21397); assay: Activity on recombinant human MAO-A, Amplex Red method, 0.5 mM tyramine substrate; details: read-out: Inhibitory Activity (IC50, nM) MAO-A
T1 construct: purchased Sigma-Aldrich
T1 sequence (P21397 1-527): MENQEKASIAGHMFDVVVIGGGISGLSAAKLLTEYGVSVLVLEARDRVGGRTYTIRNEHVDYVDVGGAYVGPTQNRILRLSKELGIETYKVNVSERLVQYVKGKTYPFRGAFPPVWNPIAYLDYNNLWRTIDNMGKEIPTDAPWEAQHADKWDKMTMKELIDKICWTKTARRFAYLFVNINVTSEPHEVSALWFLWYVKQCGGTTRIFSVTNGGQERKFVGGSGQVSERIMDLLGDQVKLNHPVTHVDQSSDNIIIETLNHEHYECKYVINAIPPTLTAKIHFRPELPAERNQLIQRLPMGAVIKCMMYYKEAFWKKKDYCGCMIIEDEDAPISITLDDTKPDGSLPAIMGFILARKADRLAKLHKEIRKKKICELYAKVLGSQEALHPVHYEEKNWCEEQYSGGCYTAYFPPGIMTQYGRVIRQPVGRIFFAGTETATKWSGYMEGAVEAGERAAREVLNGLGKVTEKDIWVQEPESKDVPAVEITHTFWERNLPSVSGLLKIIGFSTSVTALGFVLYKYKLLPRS
Outline: (§1)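 8-point, 1:3 dose-response, four-parameter logistic IC50 from reduction in fluorescence rate versus DMSO control. HRP/Amplex Red detection of H2O2 (ex 544, em 590 nm) after 30 min, 37 °C compound–enzyme preincubation in pH 7.4 phosphate buffer. MAO-A substrate: 0.5 mM tyramine; MAO-B: 1 mM benzylamine.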

[2] = molecular target: T2, recombinant human MAO-B (monoamine oxidase-B) (Homo sapiens, UniProt P27338); assay: Activity on recombinant human MAO-B, Amplex Red method, 1 mM benzylamine substrate; details: read-out: Inhibitory Activity (IC50, nM) MAO-B
T2 construct: purchased Sigma-Aldrich
T2 sequence (P27338 1-520): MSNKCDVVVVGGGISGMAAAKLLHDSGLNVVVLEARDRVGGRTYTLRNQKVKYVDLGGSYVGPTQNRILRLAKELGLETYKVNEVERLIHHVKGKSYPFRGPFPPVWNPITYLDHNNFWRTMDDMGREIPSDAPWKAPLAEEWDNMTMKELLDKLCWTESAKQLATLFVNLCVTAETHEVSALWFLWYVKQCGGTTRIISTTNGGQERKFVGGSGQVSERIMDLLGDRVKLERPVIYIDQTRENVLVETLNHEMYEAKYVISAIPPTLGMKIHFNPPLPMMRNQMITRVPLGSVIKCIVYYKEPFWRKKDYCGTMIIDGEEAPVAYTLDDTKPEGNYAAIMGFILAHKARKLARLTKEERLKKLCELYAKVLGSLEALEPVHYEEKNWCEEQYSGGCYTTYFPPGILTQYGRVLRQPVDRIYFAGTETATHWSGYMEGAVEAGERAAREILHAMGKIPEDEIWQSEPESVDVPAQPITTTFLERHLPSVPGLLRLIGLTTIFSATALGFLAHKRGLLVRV
Outline: as §1

[3] = molecular target: T3, recombinant human DAO (diamine oxidase) (Homo sapiens, UniProt P19801); assay: Activity on recombinant human DAO, Amplex Red method, 1 mM putrescine substrate; details: recombinant human DAO, read-out: Inhibitory Activity (IC50, nM) DAO
T3 construct: purchased R&D systems
T3 sequence (P19801 20-751): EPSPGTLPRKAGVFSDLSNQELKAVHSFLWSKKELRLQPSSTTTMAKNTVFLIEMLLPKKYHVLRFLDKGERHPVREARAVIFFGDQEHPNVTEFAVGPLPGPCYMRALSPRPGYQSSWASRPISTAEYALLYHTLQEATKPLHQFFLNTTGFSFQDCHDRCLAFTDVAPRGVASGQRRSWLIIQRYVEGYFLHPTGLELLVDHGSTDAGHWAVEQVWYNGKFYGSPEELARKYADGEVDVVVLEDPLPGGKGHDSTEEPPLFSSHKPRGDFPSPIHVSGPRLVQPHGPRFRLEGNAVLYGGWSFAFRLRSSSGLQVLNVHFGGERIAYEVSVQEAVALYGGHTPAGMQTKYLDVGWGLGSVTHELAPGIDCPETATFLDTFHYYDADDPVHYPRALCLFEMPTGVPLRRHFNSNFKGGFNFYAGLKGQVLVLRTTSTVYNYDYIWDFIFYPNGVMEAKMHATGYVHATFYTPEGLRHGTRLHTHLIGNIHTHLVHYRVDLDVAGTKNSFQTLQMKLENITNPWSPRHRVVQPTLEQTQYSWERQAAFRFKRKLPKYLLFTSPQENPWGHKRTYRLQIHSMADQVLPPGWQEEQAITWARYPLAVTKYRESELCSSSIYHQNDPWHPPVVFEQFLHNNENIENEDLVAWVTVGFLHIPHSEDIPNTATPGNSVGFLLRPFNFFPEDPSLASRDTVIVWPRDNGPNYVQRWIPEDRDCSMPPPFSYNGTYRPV
Outline: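 Inhibition of recombinant human DAO (diamine oxidase, R&D systems) was assessed with the Amplex Red Hydrogen Peroxide Assay Kit. Hydrogen peroxide produced from 1 mM putrescine was detected through an HRP-coupled reaction that converts Amplex Red into fluorescent resorufin, read at 544 nm excitation and 590 nm emission. IC50 values came from four-parameter logistic fits in GraphPad Prism.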

[4] = molecular target: T4, recombinant human VAP-1 (Homo sapiens, UniProt Q16853); assay: Activity on recombinant human VAP-1, Amplex Red HRP-coupled hydrogen peroxide assay, benzylamine substrate; details: recombinant human VAP-1, benzylamine substrate, read-out: Inhibitory Activity (IC50, nM) human VAP-1
T4 construct: purchased R&D systems
T4 sequence (Q16853 1-763): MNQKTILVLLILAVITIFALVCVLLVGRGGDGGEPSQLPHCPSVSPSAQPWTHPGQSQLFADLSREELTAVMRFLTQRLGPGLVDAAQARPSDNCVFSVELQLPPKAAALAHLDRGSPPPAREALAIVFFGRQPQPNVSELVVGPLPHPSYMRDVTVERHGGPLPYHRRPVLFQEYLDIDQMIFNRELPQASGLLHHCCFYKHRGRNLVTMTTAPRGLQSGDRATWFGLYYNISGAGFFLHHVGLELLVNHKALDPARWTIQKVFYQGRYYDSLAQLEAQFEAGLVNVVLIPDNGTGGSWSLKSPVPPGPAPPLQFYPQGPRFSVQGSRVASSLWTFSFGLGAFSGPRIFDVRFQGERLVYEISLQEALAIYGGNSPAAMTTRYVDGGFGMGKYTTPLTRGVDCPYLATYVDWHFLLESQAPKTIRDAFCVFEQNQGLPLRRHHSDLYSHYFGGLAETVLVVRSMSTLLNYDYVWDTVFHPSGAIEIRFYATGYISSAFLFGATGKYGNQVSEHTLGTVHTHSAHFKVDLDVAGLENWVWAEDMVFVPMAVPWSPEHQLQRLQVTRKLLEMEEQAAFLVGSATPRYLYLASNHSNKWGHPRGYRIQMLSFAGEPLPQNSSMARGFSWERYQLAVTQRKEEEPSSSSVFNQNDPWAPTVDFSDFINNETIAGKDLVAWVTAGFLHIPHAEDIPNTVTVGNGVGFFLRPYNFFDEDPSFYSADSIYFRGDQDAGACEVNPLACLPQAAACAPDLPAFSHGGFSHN
Outline: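 Compounds were preincubated with purified enzyme in 50 mM sodium phosphate pH 7.4 at 37 °C for 30 min, then 200 uM Amplex Red, 1 mM benzylamine and 1 U/mL HRP were added. Resorufin fluorescence (ex 544/em 590 nm) was followed over 1-2 h; IC50 came from 4-parameter fits of signal-rate inhibition.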

[5] = 1 mM putrescine, * = between 10 and 100 nM, ** = between 300 and 1000 nM

Compound	IC50 ([1]; 0.5 mM tyramine substrate) [nM]	IC50 ([2]; 1 mM benzylamine substrate) [nM]	IC50 ([3]; 1 mM putrescine substrate) [nM]	IC50 [4] [nM]	IC50 ([1]; 0.5 mM tyramine) [nM]	IC50 ([2]; 1 mM benzylamine) [nM]	IC50 [3, 5] [nM]	IC50 ([4]; 30 min preincubation at 37° C.) [nM]
CC(=O)Nc1nc2cc(-c3cnc(-n4cnn(C/C(=C/F)CN)c4=O)cn3)ccc2s1 [Example 225, N-[5-(5-{1-[(2E)-2-(aminomethyl)-3-fluoroprop-2-en-1-yl]-5-oxo-1,5-dihydro-4H-1,2,4-triazol-4-yl}pyrazin-2-yl)-1,3-benzothiazol-2-yl]acetamide]	> 100000	53	< 100	1				
NC/C(=C/F)Cn1ncn(-c2ccc(Br)c(F)c2)c1=O [Example 13, 2-[(2Z)-2-(aminomethyl)-3-fluoroprop-2-en-1-yl]-4-(4-bromo-3-fluorophenyl)-2,4-dihydro-3H-1,2,4-triazol-3-one]					155	3.3	67	2.3
Cc1cc(Br)cnc1-n1cnn(C/C(=C/F)CN)c1=O [Example 32, 2-[(2E)-2-(aminomethyl)-3-fluoroprop-2-en-1-yl]-4-(5-bromo-3-methylpyridin-2-yl)-2,4-dihydro-3H-1,2,4-triazol-3-one hydrochloride]					93000	51	> 100000	2.2
NC/C(=C\F)Cn1ncn(-c2cnc(Br)cn2)c1=O [Example 38, 2-[(2E)-2-(aminomethyl)-3-fluoroprop-2-en-1-yl]-4-(5-bromopyrazin-2-yl)-2,4-dihydro-3H-1,2,4-triazol-3-one]					19600	112	< 100	4.4
NC/C(=C/F)Cn1ncn(-c2cccc(Br)c2)c1=O [Example 3, 2-[(2Z)-2-(aminomethyl)-3-fluoroprop-2-en-1-yl]-4-(3-bromophenyl)-2,4-dihydro-3H-1,2,4-triazol-3-one hydrochloride]					3500	121	542	2.5
NC/C(=C\F)Cn1ncn(-c2cccc(Br)c2)c1=O [Example 4, 2-[(2E)-2-(aminomethyl)-3-fluoroprop-2-en-1-yl]-4-(3-bromophenyl)-2,4-dihydro-3H-1,2,4-triazol-3-one hydrochloride]					> 100000	175	90	1.2
CS(=O)(=O)c1ccc(-c2cccc(-c3cccc(-n4cnn(C/C(=C/F)CN)c4=O)c3)c2)cc1 [Example 67, 2-[(2E)-2-(aminomethyl)-3-fluoroprop-2-en-1-yl]-4-[4″-(methylsulfonyl)-1,1′:3′,1″-terphenyl-3-yl]-2,4-dihydro-3H-1,2,4-triazol-3-one]					> 100000	> 10000	11	0.77

Continued, values first:

IC50 ([1]; 0.5 mM tyramine substrate) [nM]	IC50 ([2]; 1 mM benzylamine substrate) [nM]	IC50 ([3]; 1 mM putrescine substrate) [nM]	IC50 [4] [nM]	IC50 ([1]; 0.5 mM tyramine) [nM]	IC50 ([2]; 1 mM benzylamine) [nM]	IC50 [3, 5] [nM]	IC50 ([4]; 30 min preincubation at 37° C.) [nM]	Compound
> 100000	940	< 10	0.45					NC/C(=C\F)Cn1ncn(-c2cccc(-c3ccc(C(F)(F)F)nc3)n2)c1=O [Example 187, 2-[(2E)-2-(aminomethyl)-3-fluoroprop-2-en-1-yl]-4-[6′-(trifluoromethyl)-2,3′-bipyridin-6-yl]-2,4-dihydro-3H-1,2,4-triazol-3-one hydrochloride]
> 100000	880	2.1	1.9					CC(C)c1nc(-c2cccc(-c3cccc(-n4cnn(C/C(=C/F)CN)c4=O)n3)c2)no1 [Example 181, 2-[(2E)-2-(aminomethyl)-3-fluoroprop-2-en-1-yl]-4-(6-{3-[5-(propan-2-yl)-1,2,4-oxadiazol-3-yl]phenyl}pyridin-2-yl)-2,4-dihydro-3H-1,2,4-triazol-3-one]
> 100000	> 10000	17	1.3					NC/C(=C\F)Cn1ncn(-c2cccc(-c3cccc4[nH]c(=O)ccc34)n2)c1=O [Example 201, 5-(6-{1-[(2E)-2-(aminomethyl)-3-fluoroprop-2-en-1-yl]-5-oxo-1,5-dihydro-4H-1,2,4-triazol-4-yl}pyridin-2-yl)quinolin-2(1H)-one hydrochloride]
9600	1940	< 100	0.18					Cc1cc(-n2cnn(C/C(=C/F)CN)c2=O)ncc1-c1cccc(-c2nc[nH]n2)c1 [Example 158, 2-[(2E)-2-(aminomethyl)-3-fluoroprop-2-en-1-yl]-4-{4-methyl-5-[3-(1H-1,2,4-triazol-3-yl)phenyl]pyridin-2-yl}-2,4-dihydro-3H-1,2,4-triazol-3-one]
> 100000	2710	2.9	1.2					NC/C(=C\F)Cn1ncn(-c2cccc(-c3ccc4c(c3)OCCO4)n2)c1=O [Example 194, 2-[(2E)-2-(aminomethyl)-3-fluoroprop-2-en-1-yl]-4-[6-(2,3-dihydro-1,4-benzodioxin-6-yl)pyridin-2-yl]-2,4-dihydro-3H-1,2,4-triazol-3-one]
